In ChEMBL document CHEMBL4316594, “An overview of grayanane diterpenoids and their biological activities from the Ericaceae family in the last seven years” (Eur J Med Chem, 2019):

Tests used:
Coxsackievirus B3 = assay: Antiviral activity against Coxsackievirus B3 infected in African green monkey Vero cells; assay type: functional, organism-based; conditions: Enterovirus B
Mus musculus [1] = assay: Antinociceptive activity in Kunming mouse model assessed as inhibition of acetic acid-induced writhes at 0.08 mg/kg, ip pretreated for 30 mins followed by acetic acid challenge and measured for 30 mins post acetic acid challenge relative to control; assay type: functional
[2] = target: T1, Tyrosine-protein phosphatase non-receptor type 1 (Homo sapiens, UniProt P18031); assay: Inhibition of recombinant human PTP1B expressed in Escherichia coli using pNPP as substrate preincubated for 10 mins followed by substrate addition for 30 mins and measured at 5 mins interval for 30 mins
T1 sequence (P18031 whole entry): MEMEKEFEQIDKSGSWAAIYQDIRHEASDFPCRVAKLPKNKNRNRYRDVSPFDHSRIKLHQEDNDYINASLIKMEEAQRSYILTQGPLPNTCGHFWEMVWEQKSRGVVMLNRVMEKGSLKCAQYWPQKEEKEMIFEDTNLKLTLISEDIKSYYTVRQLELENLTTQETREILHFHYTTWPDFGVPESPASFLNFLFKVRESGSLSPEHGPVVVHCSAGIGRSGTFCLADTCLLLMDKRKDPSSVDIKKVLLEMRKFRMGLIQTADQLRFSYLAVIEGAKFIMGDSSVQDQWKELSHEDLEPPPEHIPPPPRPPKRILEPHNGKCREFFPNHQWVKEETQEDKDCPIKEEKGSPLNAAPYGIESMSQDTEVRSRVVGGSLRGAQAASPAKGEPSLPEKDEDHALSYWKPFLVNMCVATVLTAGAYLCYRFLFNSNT

Mus musculus [3] = assay: Antinociceptive activity in Kunming mouse model assessed as inhibition of acetic acid-induced writhes at 5 mg/kg, ip pretreated for 15 mins followed by acetic acid challenge and measured for 20 mins post acetic acid challenge relative to control; assay type: functional
Mus musculus [4] = assay: Antinociceptive activity in ip dosed Kunming mouse model assessed as inhibition of acetic acid-induced writhes pretreated for 15 mins followed by acetic acid challenge and measured for 20 mins post acetic acid challenge; assay type: functional; conditions: read-out: ID50 (the source's name)
[5] = target: T1, Tyrosine-protein phosphatase non-receptor type 1; assay: Inhibition of recombinant PTP1B catalytic domain (unknown origin) using pNPP as substrate
Pieris brassicae = assay: Antifeedant activity in Pieris brassicae measured 24 hrs post leaf feeding by leaf disc method; assay type: functional, organism-based
Influenza A virus = assay: Antiviral activity against Influenza A virus (A/Hanfang/359/95(H3N2)) infected in MDCK cells assessed as reduction in virus-induced cytopathogenicity; assay type: functional, organism-based
[6] = target: T1, Tyrosine-protein phosphatase non-receptor type 1; assay: Inhibition of recombinant human PTP1B expressed in Escherichia coli using pNPP as substrate preincubated for 30 mins followed by substrate addition for 45 mins and measured at 5 mins interval for 30 mins
Mus musculus [7] = assay: Antinociceptive activity in Kunming mouse model assessed as inhibition of acetic acid-induced writhes at 10 mg/kg, ip pretreated for 15 mins followed by acetic acid challenge and measured for 20 mins post acetic acid challenge relative to control; assay type: functional

In the case of `CC(=O)[C@@H]1C[C@@H](O)[C@H]2[C@@H](O)[C@@]1(C[C@H]1OC(=O)C(C)(C)[C@]1(O)CCO)C[C@@]2(C)O`, the IC50 (Coxsackievirus B3) is reported as 27.7 µM.
In the case of `CO[C@H]1[C@H](O)C(C)(C)[C@@]2(O)[C@H](O)[C@@H](O)[C@]34C[C@@](C)(O)[C@H](CC[C@H]3[C@@](C)(O)[C@H]12)[C@H]4O`, the inhibition in vivo at 0.08 mg/kg (Mus musculus [1]) is reported as 56.8%.
For `CO[C@@H]1O[C@H]2O[C@@H]3C[C@]45C[C@@](C)(O)[C@H](CC[C@H]4[C@@](C)(O3)[C@H]2CC1(C)C)[C@H]5O`, the IC50 [2] was 42.4 µM.
`CC(C)(O)[C@]12OC(=O)C[C@H]1[C@](C)(O)[C@@H]1CC[C@@H]3[C@@H](O)[C@@]1([C@H](O)[C@H]2O)[C@@H](O)[C@@]3(C)O` was tested, and the inhibition in vivo at 5 mg/kg (Mus musculus [3]) was 63.5% and the ED50 (Mus musculus [4]) was 1.24 mg/kg.
Work on `C=C1[C@H]2C[C@H](O)C(C)(C)[C@@]2(O)[C@H](O)C[C@]23C[C@@](C)(O)[C@H](CC[C@@H]12)[C@H]3O` yielded an IC50 [5] of 24.5 µM.
In the case of `CCC(=O)O[C@@H]1[C@@H](OC(C)=O)[C@@]2([C@](C)(O)CCl)OC(=O)C[C@H]2[C@](C)(O)[C@@H]2CC[C@@H]3[C@@H](OC(C)=O)[C@]12[C@@H](OC(C)=O)[C@@]3(C)OC(C)=O`, the EC50 (Pieris brassicae) is reported as 10.07 microg/cm2.
Compound `C=C1[C@H]2C[C@H](O)C(C)(C)[C@@]2(O)[C@H](O)C[C@]23C=C(C)[C@H](CC[C@@H]12)[C@H]3O` has an IC50 [5] of 3.14 µM.
`CC1(C)[C@H]2O[C@H]2[C@H]2[C@@]3(C)O[C@H](C[C@@]45C=C[C@@H](C[C@H]43)[C@](C)(O)C5)[C@]21C` was tested, and the IC50 (Influenza A virus) was 19.2 µM.
With `CO[C@H]1C[C@]23C[C@@](C)(O)[C@H](CC[C@H]2[C@](C)(C2=CO[C@H](OC)C(C)(C)C2=O)O1)[C@H]3O` the IC50 [2] was 16.7 µM.
`CC1(C)CCC[C@H](O)[C@@]2(C)[C@@H]3CC[C@@H]4C[C@@]3(C[C@H]2C1=O)C[C@@]4(C)O` was tested, and the “inhibition (INH)” value (Pieris brassicae) was 45%.
`Cc1cccc(C[C@H]2O[C@]3(C)O[C@@]24[C@@H]([C@@H](O)[C@H](O)C4(C)C)[C@H]3C)c1` was tested, and the IC50 [6] was 32.2 µM.
Work on `CC1(C)[C@@H](O)[C@H](Cl)[C@H]2[C@](C)(O)[C@@H]3CC[C@@H]4[C@@H](O)[C@]3(C[C@@]4(C)O)[C@H](O)[C@@H](O)[C@@]21O` yielded an inhibition in vivo at 0.08 mg/kg (Mus musculus [1]) of 49.8%.
With `CCC(=O)O[C@@H]1[C@H]2CC[C@H]3[C@@](C)(O)[C@@H]4CC(=O)O[C@]4([C@](C)(O)CCl)[C@H](OC(C)=O)[C@@H](OC(C)=O)[C@@]13[C@@H](OC(C)=O)[C@@]2(C)OC(C)=O` the EC50 (Pieris brassicae) was 5.33 microg/cm2.
With `CC1=C[C@]23C[C@H]1CC[C@H]2[C@]1(C)[C@@H](O)CCCC(C)(C)C(=O)[C@@H]1C3` the “inhibition (INH)” value (Pieris brassicae) was 45%.
For `CC1=C[C@@H]2O[C@@]3(C)[C@@H]4C[C@H](O)[C@H]1[C@]24C[C@@H](O)[C@@]1(O)[C@H]3[C@@H]2O[C@@H]2C1(C)C`, the IC50 [2] was 24.3 µM.
`CC(C)(O)[C@]12OC(=O)C[C@H]1[C@](C)(O)[C@@H]1[C@H](O)C[C@@H]3[C@@H](O)[C@@]1([C@H](O)[C@H]2O)[C@@H](O)[C@@]3(C)O` showed an inhibition in vivo at 5 mg/kg (Mus musculus [3]) of 69.9% and an ED50 (Mus musculus [4]) of 0.72 mg/kg.
`Cc1cccc(C[C@H]2O[C@]3(C)O[C@@]24[C@@H]([C@@H](O)[C@H](O)C4(C)C)[C@@H]3C)c1` showed an IC50 [6] of 23 µM.
Compound `CO[C@@H]1C[C@]23C[C@@](C)(O)[C@H](CC[C@H]2[C@](C)(C2=CO[C@H](OC)C(C)(C)C2=O)O1)[C@H]3O` has an IC50 [2] of 19.9 µM.
In the case of `C[C@]12CC[C@H](O)[C@@]3(C)[C@@H]4CC[C@@H]5C[C@]4(C[C@@]5(C)O)C[C@@]3(OC1=O)C2=O`, the “inhibition (INH)” value (Pieris brassicae) is reported as 45% and the inhibition in vivo at 10 mg/kg (Mus musculus [7]) is reported as 45%.
Compound `CC(O)C(=O)O[C@@H]1[C@H]2CC[C@H]3[C@@](C)(O)[C@@H]4[C@@H]5O[C@@H]5C(C)(C)[C@@]4(O)[C@H](O)C(=O)[C@@]13C[C@@]2(C)O` (stereo partly drawn) has an inhibition in vivo at 0.08 mg/kg (Mus musculus [1]) of 37.6%.
